According to patent US20200308171A1, “BIFUNCTIONAL INHIBITORS WITH EGFR HAVING A E3 UBIQUITIN LIGASE MOIETY” (Hoffmann-La Roche Inc., priority 2017, published 2020):
Where a name gives a salt, the structure may show the parent alone.

Target: T1, EGFR T790M/L858R/C797S (Homo sapiens, UniProt P00533, C797S/L858R/T790M)
T1 construct: expressed in transfected cells; host or cells: BaF3 (murine pro-B) cells stably transduced with pCDH lentiviral vector, PGK promoter
Test: EGFR Degradation Assay (Cellular), FRET quantification of total EGFR
Assay type: cell-based
Settings: BaF3 EGFR mutant cell line (EGFR T790M/L858R/C797S); 4-hour incubation; total EGFR FRET kit; top concentration 1 μM, 11 points; read-out: IC50 [nM] mutant EGFR degradation
Protocol: EGFR Degradation Assay (Cellular)
The BaF3 parental line was purchased from DSMZ and grown in RPMI media supplemented with 10% FBS and 10 ng/mL interleukin 3 (IL-3) (Thermo Fisher Scientific). EGFR mutants ([…]) were cloned into the pCDH lentiviral vector (SystemBio) under the control of a PGK promoter and confirmed by DNA sequencing. The resulting gene expression vector for each mutant was mixed with packaging vectors and cotransfected into 2×10E6 HEK293T cells (ATCC) in 10 mL of DMEM media to generate lentiviral particles according to the manufacturers protocol (Origene).
Three days post-transfection, the viral supernatant was harvested and filtered. In one well of a 12-well plate, 0.5 mL of viral supernatant was added to 2E6 Ba/F3 cells contained in 1.5 mL of RPMI media including 10% FBS, 10 ng/mL IL-3, and 5 μg/mL polybrene (Invitrogen). The plate was centrifuged at 2,000 rpm for 1 hour at room temperature and infected cells were kept in a tissue culture incubator overnight at 37° C. The cells were washed once in fresh BaF3 media and reseeded at 0.5E6 cells/well of a 12-well plate in media supplemented with 0.5 μg/mL puromycin. The cells were maintained in this media for 3 weeks. IL-3-independent, EGFR mutant transformed cells were routinely maintained in RPMI medium supplemented with 10% FBS.
RPMI 1640 no-phenol red medium and fetal bovine serum (FBS) were purchased from Gibco (Grand Island, N.Y., USA). EGFR total kit and EGFR phospho-Y1068 kit were purchased from Cisbio (Bedford, Mass., USA). BaF3 EGFR mutant cell lines (EGFR T790M/L858R/C797S) cell line was generated in house, according to the protocol reported above. Cell culture flasks and 384-well microplates were acquired from VWR (Radnor, Pa., USA).
EGFR degradation was determined based on quantification of FRET signal using EGFR total kit. The FRET signal detected correlates with total EGFR protein level in cells. Briefly, test compounds were added to the 384-well plate from a top concentration of 1 μM with 11 points, half log titration in quadruplicates. Then, BaF3 EGFR mutant cell lines (EGFR T790M/L858R/C797S) were added into 384-well plates at a cell density of 10000 cells per well. The plates were kept at 37° C. with 5% CO2 for 4 hours. After 4-hour incubation, 4× lysis buffer was added to the cells, and then microplate was agitated on plate shaker at 500 rpm for 30 minutes at room temperature. Next, total EGFR antibody solution was added to the cells and the cells were incubated for another 4 hours at room temperature. Finally, FRET signal was acquired on EnVision™ Multilabel Reader (PerkinElmer, Santa Clara, Calif., USA). The cells treated in the absence of the test compound were the negative control and lysis buffer with antibody solution only were the positive control.

T1 sequence (P00533 25-1210 T790M/C797S/L858R): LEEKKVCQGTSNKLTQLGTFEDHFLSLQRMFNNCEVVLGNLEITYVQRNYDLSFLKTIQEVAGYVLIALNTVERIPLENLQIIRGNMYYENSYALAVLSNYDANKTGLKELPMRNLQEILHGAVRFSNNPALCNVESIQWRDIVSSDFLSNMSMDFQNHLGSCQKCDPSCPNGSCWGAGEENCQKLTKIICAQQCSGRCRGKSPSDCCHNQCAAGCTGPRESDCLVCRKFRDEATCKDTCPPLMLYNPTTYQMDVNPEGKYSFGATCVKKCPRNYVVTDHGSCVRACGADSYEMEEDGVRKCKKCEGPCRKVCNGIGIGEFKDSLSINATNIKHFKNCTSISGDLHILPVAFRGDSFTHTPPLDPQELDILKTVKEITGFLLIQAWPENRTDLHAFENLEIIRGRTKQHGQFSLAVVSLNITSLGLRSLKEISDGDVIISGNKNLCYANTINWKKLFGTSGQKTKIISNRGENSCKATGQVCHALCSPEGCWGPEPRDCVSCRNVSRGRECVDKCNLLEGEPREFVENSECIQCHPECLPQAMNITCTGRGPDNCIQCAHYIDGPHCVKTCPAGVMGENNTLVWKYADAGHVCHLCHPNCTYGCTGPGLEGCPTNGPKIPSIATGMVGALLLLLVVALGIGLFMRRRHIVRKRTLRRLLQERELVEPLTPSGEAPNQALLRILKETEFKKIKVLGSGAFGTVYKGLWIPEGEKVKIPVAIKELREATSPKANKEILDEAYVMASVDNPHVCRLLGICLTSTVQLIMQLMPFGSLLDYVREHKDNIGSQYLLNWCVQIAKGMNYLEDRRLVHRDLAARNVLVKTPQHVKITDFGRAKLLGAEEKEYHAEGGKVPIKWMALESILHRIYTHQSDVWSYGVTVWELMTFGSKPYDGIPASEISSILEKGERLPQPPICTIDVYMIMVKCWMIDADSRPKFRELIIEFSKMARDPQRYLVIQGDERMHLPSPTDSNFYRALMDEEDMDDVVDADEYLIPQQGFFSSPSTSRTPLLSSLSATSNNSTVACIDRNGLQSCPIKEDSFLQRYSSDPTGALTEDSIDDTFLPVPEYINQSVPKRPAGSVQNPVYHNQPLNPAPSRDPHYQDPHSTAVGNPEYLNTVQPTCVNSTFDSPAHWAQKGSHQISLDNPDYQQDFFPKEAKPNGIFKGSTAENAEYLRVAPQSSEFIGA

Question: For `CO[C@H]1CCN(c2nccc(Nc3cc4c(cn3)c(C(=O)NC3CCN(CCCC5CN(c6cccc7c6C(=O)N(C6CCC(=O)NC6=O)C7=O)C5)CC3)cn4C(C)C)n2)C[C@H]1F` (mixture of isomers) [Example 24, N-[1-[3-[1-[2-[(3RS)-2,6-Dioxo-3-piperidyl]-1,3-dioxo-isoindolin-4-yl]azetidin-3-yl]propyl]-4-piperidyl]-6-[[2-[(3R,4S)-3-fluoro-4-methoxy-1-piperidyl]pyrimidin-4-yl]amino]-1-isopropyl-pyrrolo[3,2-c]pyridine-3-carboxamide], which DC50 is on record?
Answer: 5 nM

Question: For `COC1CCN(c2nccc(Nc3cc4c(cn3)c(C(=O)NC3CCN(C(=O)CCCCCNc5cccc6c5C(=O)N(C5CCC(=O)NC5=O)C6=O)CC3)cn4C(C)C)n2)CC1` (racemic) [Example 1, N-[1-[6-[[2-[(3RS)-2,6-Dioxo-3-piperidyl]-1,3-dioxo-isoindolin-4-yl]amino]hexanoyl]-4-piperidyl]-1-isopropyl-6-[[2-(4-methoxy-1-piperidyl)pyrimidin-4-yl]amino]pyrrolo[3,2-c]pyridine-3-carboxamide], which DC50 is on record?
Answer: 59 nM

Question: `COC1CCN(c2nccc(Nc3cc4c(cn3)c(C(=O)NC3CCN(CCCCCCNc5cccc6c5C(=O)N(C5CCC(=O)NC5=O)C6=O)CC3)cn4C(C)C)n2)CC1` (racemic) [Example 2, N-[1-[6-[[2-[(3RS)-2,6-Dioxo-3-piperidyl]-1,3-dioxo-isoindolin-4-yl]amino]hexyl]-4-piperidyl]-1-isopropyl-6-[[2-(4-methoxy-1-piperidyl)pyrimidin-4-yl]amino]pyrrolo[3,2-c]pyridine-3-carboxamide] was tested. Which DC50 did it give?
Answer: 132 nM

Question: `COC1CCN(c2nccc(Nc3cc4c(cn3)c(C(=O)NC3CCN(CCCCCCNc5cccc6c5C(=O)N(C5CCC(=O)NC5=O)C6=O)CC3)cn4C(C)C)n2)CC1(F)F` (racemic) [Example 3, 6-[[2-[(4RS)-3,3-Difluoro-4-methoxy-1-piperidyl]pyrimidin-4-yl]amino]-N-[1-[6-[[2-[(3RS)-2,6-dioxo-3-piperidyl]-1,3-dioxo-isoindolin-4-yl]amino]hexyl]-4-piperidyl]-1-isopropyl-pyrrolo[3,2-c]pyridine-3-carboxamide] was tested. Which DC50 did it give?
Answer: 44 nM

Question: How did the DC50 turn out when `COC1CCN(c2nccc(Nc3cc4c(cn3)c(C(=O)NC3CCN(CCCCCCNc5cccc6c5C(=O)N(C5CCC(=O)NC5=O)C6=O)CC3)cn4C3CCCC3)n2)CC1` (racemic) [Example 4, 1-Cyclopentyl-N-[1-[6-[[2-[(3RS)-2,6-dioxo-3-piperidyl]-1,3-dioxo-isoindolin-4-yl]amino]hexyl]-4-piperidyl]-6-[[2-(4-methoxy-1-piperidyl)pyrimidin-4-yl]amino]pyrrolo[3,2-c]pyridine-3-carboxamide] was run?
Answer: 38 nM

Question: For `CO[C@H]1CCN(c2nccc(Nc3cc4c(cn3)c(C(=O)NC3CCN(CCCCCCNc5cccc6c5C(=O)N(C5CCC(=O)NC5=O)C6=O)CC3)cn4C(C)C)n2)C[C@H]1F` (mixture of isomers) [Example 5, N-[1-[6-[[2-[(3RS)-2,6-Dioxo-3-piperidyl]-1,3-dioxo-isoindolin-4-yl]amino]hexyl]-4-piperidyl]-6-[[2-[(3R,4S)(3S,4R)-3-fluoro-4-methoxy-1-piperidyl]pyrimidin-4-yl]amino]-1-isopropyl-pyrrolo[3,2-c]pyridine-3-carboxamide], which DC50 is on record?
Answer: 28 nM

Question: With `COC1CCN(c2nccc(Nc3cc4c(cn3)c(N3CCC(C(=O)NC5CCN(CCCCCCNc6cccc7c6C(=O)N(C6CCC(=O)NC6=O)C7=O)CC5)C3)nn4C(C)C)n2)CC1` (racemic) [Example 6, (3RS)—N-[1-[6-[[2-[(3RS)-2,6-Dioxo-3-piperidyl]-1,3-dioxo-isoindolin-4-yl]amino]hexyl]-4-piperidyl]-1-[1-isopropyl-6-[[2-(4-methoxy-1-piperidyl)pyrimidin-4-yl]amino]pyrazolo[4,3-c]pyridin-3-yl]pyrrolidine-3-carboxamide] as the molecule, how does the DC50 read?
Answer: 46 nM

Question: How did the DC50 turn out when `CO[C@H]1CCN(c2nccc(Nc3cc4c(cn3)c(C(=O)NC3CCN(CCCC5CCN(c6cccc7c6C(=O)N(C6CCC(=O)NC6=O)C7=O)CC5)CC3)cn4C(C)C)n2)C[C@H]1F` (mixture of isomers) [Example 12, N-[1-[3-[1-[2-[(3RS)-2,6-Dioxo-3-piperidyl]-1,3-dioxo-isoindolin-4-yl]-4-piperidyl]propyl]-4-piperidyl]-6-[[2-[(3R,4S)(3S,4R)-3-fluoro-4-methoxy-1-piperidyl]pyrimidin-4-yl]amino]-1-isopropyl-pyrrolo[3,2-c]pyridine-3-carboxamide trifluoroacetate] was run?
Answer: 69 nM

Question: `CO[C@H]1CCN(c2nccc(Nc3cc4c(cn3)c(C(=O)NC3CCN(CCCCC5CCN(c6ccc7c(c6)C(=O)N(C6CCC(=O)NC6=O)C7=O)CC5)CC3)cn4C(C)C)n2)C[C@H]1F` (mixture of isomers) [Example 19, N-[1-[4-[1-[2-[(3RS)-2,6-Dioxo-3-piperidyl]-1,3-dioxo-isoindolin-5-yl]-4-piperidyl]butyl]-4-piperidyl]-6-[[2-[(3R,4S)(3S,4R)-3-fluoro-4-methoxy-1-piperidyl]pyrimidin-4-yl]amino]-1-isopropyl-pyrrolo[3,2-c]pyridine-3-carboxamide] was tested. Which DC50 did it give?
Answer: 73 nM

Question: Which DC50 does the source give for `CO[C@H]1CCN(c2nccc(Nc3cc4c(cn3)c(C(=O)NC3CCN(CCC[C@H]5CC[C@H](Nc6cccc7c6C(=O)N(C6CCC(=O)NC6=O)C7=O)CC5)CC3)cn4C(C)C)n2)C[C@H]1F` (mixture of isomers) [Example 20, N-[1-[3-[4-[[2-[(3RS)-2,6-Dioxo-3-piperidyl]-1,3-dioxo-isoindolin-4-yl]amino]cyclohexyl]propyl]-4-piperidyl]-6-[[2-[(3R,4S)-3-fluoro-4-methoxy-l-piperidyl]pyrimidin-4-yl]amino]-1-isopropyl-pyrrolo[3,2-c]pyridine-3-carboxamide] here?
Answer: 15 nM

Question: `CO[C@H]1CCN(c2nccc(Nc3cc4c(cn3)c(C(=O)NC3CCN(CCCOC5CN(c6cccc7c6C(=O)N(C6CCC(=O)NC6=O)C7=O)C5)CC3)cn4C(C)C)n2)C[C@H]1F` (mixture of isomers) [Example 22, N-[1-[3-[1-[2-[(3RS)-2,6-Dioxo-3-piperidyl]-1,3-dioxo-isoindolin-4-yl]azetidin-3-yl]oxypropyl]-4-piperidyl]-6-[[2-[(3R,4S)-3-fluoro-4-methoxy-l-piperidyl]pyrimidin-4-yl]amino]-1-isopropyl-pyrrolo[3,2-c]pyridine-3-carboxamide] was tested. Which DC50 did it give?
Answer: 26 nM

Question: `CO[C@H]1CCN(c2nccc(Nc3cc4c(cn3)c(C(=O)NC3CCN(CCCOC5CCN(c6cccc7c6C(=O)N(C6CCC(=O)NC6=O)C7=O)CC5)CC3)cn4C3CCCC3)n2)C[C@H]1F` (single isomer, unassigned) [Example 18] was tested. Which DC50 did it give?
Answer: 45 nM
